Like-named read-outs stand apart in the source and are kept apart here.
Assays:
Format in all cases: in vivo
[1] = test system: blackgrass (Alopecurus myosuroides); test: Test A postemergence; conditions: Alopecurus myosuroides, post-emergence, 240 h, 125 g ai/ha
In short: (§1)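 Seeded soil received test chemicals as a preemergence directed spray, and seedlings at one to two leaves, 2–10 cm tall, received them postemergence, in a non-phytotoxic, surfactant-containing solvent mixture. Pots were held in a greenhouse for approximately 10 d, then rated for injury from 0, no effect, to 100, complete control.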

[2] = test system: pigweed (Amaranthus retroflexus); test: Test A postemergence; conditions: Amaranthus retroflexus, post-emergence, 240 h, 125 g ai/ha
In short: as §1

corn (Zea mays) = test: Test A postemergence; conditions: Zea mays, post-emergence, 240 h, 125 g ai/ha
In short: as §1

[3] = test system: ragweed (common ragweed, Ambrosia elatior); test: Test A postemergence; conditions: Ambrosia artemisiifolia, post-emergence, 240 h, 125 g ai/ha
In short: as §1

[4] = test system: ryegrass, Italian (Italian ryegrass, Lolium multiflorum); test: Test A postemergence; conditions: Lolium multiflorum, post-emergence, 240 h, 125 g ai/ha
In short: as §1

[5] = test system: ducksalad (Heteranthera limosa); test: Test B flooded paddy test; conditions: Heteranthera limosa, Flood, 250 g ai/ha; scale of 0 to 100 where 0 is no effect and 100 is complete control; read-out: Ducksalad plant response rating
In short: (§2)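 Evaluation by eye, against controls, occurred 13–15 d post-treatment in a greenhouse, using a 0 (no effect) to 100 (complete control) scale. Application was into the paddy water, 3 cm deep over the soil, on 2-leaf plants.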

[6] = test system: sedge, umbrella (small-flower umbrella sedge, Cyperus difformis); test: Test B flooded paddy test; conditions: Cyperus difformis, Flood, 250 g ai/ha; scale of 0 to 100 where 0 is no effect and 100 is complete control; read-out: Sedge, Umbrella plant response rating
In short: as §2

rice (Oryra sativa) = test: Test B flooded paddy test; conditions: Oryza sativa, Flood, 250 g ai/ha; scale of 0 to 100 where 0 is no effect and 100 is complete control; read-out: Rice plant response rating
In short: as §2

[7] = test system: barnyardgrass (Echinochloa crus-galli); test: Test B flooded paddy test; conditions: Echinochloa crus-galli, Flood, 250 g ai/ha; scale of 0 to 100 where 0 is no effect and 100 is complete control; read-out: Barnyardgrass plant response rating
In short: as §2

[8] = test system: pigweed (Amaranthus retroflexus); test: Test A preemergence; conditions: Amaranthus retroflexus, pre-emergence, 240 h; for pest or weed control at 125 g/ha: 125 g ai/ha, 0 to 100 scale where 0 is no effect and 100 is complete control; for pest or weed control at 500 g/ha: 500 g ai/ha
Kochia (Kochia scoparia) = test: Test A preemergence; conditions: Bassia scoparia, pre-emergence, 240 h; for pest or weed control at 125 g/ha: 125 g ai/ha, 0 to 100 scale where 0 is no effect and 100 is complete control; for pest or weed control at 500 g/ha: 500 g ai/ha
In short: as §1

[9] = test system: ragweed (common ragweed, Ambrosia elatior); test: Test A preemergence; conditions: Ambrosia artemisiifolia, pre-emergence, 240 h; for pest or weed control at 500 g/ha: 500 g ai/ha
In short: as §1

[10] = test system: ryegrass, Italian (Italian ryegrass, Lolium multiflorum); test: Test A preemergence; conditions: Lolium multiflorum, pre-emergence, 240 h; for pest or weed control at 500 g/ha: 500 g ai/ha
In short: as §1

[11] = test system: giant foxtail (Setaria faberii); test: Test A preemergence; conditions: Setaria faberi, pre-emergence, 240 h; for pest or weed control at 125 g/ha: 125 g ai/ha, 0 to 100 scale where 0 is no effect and 100 is complete control; for pest or weed control at 500 g/ha: 500 g ai/ha
In short: as §1

[12] = test system: barnyardgrass (Echinochloa crus-galli); test: Test A preemergence; conditions: Echinochloa crus-galli, pre-emergence, 240 h; for pest or weed control at 125 g/ha: 125 g ai/ha, 0 to 100 scale where 0 is no effect and 100 is complete control; for pest or weed control at 500 g/ha: 500 g ai/ha
In short: as §1

[13] = preemergence, read-out: Pigweed plant response rating
[14] = preemergence, read-out: Kochia plant response rating
[15] = preemergence, read-out: Foxtail, Giant plant response rating
[16] = preemergence, read-out: Barnyardgrass plant response rating

C=CCOc1cccc(C2CN(C)C(=O)C2C(=O)Nc2cccc(F)c2F)c1 (stereo not shown) [Compound 933]
pest or weed control at 125 g/ha ([1]; Postemergence, visual injury after approximately 10 d, 0 to 100 scale where 0 is no effect and 100 is complete control, read-out: Plant response rating, Blackgrass): 20% | pest or weed control at 125 g/ha ([2]; Postemergence, visual injury after approximately 10 d, 0 to 100 scale where 0 is no effect and 100 is complete control, read-out: Plant response rating, Pigweed): 0% | Corn plant response rating (crop injury, 0 = no effect, 100 = complete kill) at 125 g/ha (corn (Zea mays); Postemergence, visual injury after approximately 10 d, 0 to 100 scale where 0 is no effect and 100 is complete control): 40% | pest or weed control at 125 g/ha ([3]; Postemergence, visual injury after approximately 10 d, 0 to 100 scale where 0 is no effect and 100 is complete control, read-out: Plant response rating, Ragweed): 0% | pest or weed control at 125 g/ha ([4]; Postemergence, visual injury after approximately 10 d, 0 to 100 scale where 0 is no effect and 100 is complete control, read-out: Plant response rating, Ryegrass, Italian): 40% | pest or weed control at 250 g/ha [5]: 60% | pest or weed control at 250 g/ha [6]: 0% | pest or weed control at 250 g/ha (rice (Oryra sativa)): 0% | pest or weed control at 250 g/ha [7]: 60% | pest or weed control at 125 g/ha [8, 13]: 30% | pest or weed control at 500 g/ha ([8]; preemergence, visual injury rating about 10 d after treatment, 0 to 100 scale (0 no effect, 100 complete control), read-out: Pigweed plant response rating): 30% | pest or weed control at 125 g/ha (Kochia (Kochia scoparia); [14]): 50% | pest or weed control at 500 g/ha (Kochia (Kochia scoparia); preemergence, visual injury rating about 10 d after treatment, 0 to 100 scale (0 no effect, 100 complete control), read-out: Kochia plant response rating): 90% | pest or weed control at 500 g/ha ([9]; preemergence, visual injury rating about 10 d after treatment, 0 to 100 scale (0 no effect, 100 complete control), read-out: Ragweed plant response rating): 90% | pest or weed control at 500 g/ha ([10]; preemergence, visual injury rating about 10 d after treatment, 0 to 100 scale (0 no effect, 100 complete control), read-out: Ryegrass, Italian plant response rating): 70% | pest or weed control at 125 g/ha [11, 15]: 90% | pest or weed control at 500 g/ha ([11]; preemergence, visual injury rating about 10 d after treatment, 0 to 100 scale (0 no effect, 100 complete control), read-out: Foxtail, Giant plant response rating): 100% | pest or weed control at 125 g/ha [12, 16]: 90% | pest or weed control at 500 g/ha ([12]; preemergence, visual injury rating about 10 d after treatment, 0 to 100 scale (0 no effect, 100 complete control), read-out: Barnyardgrass plant response rating): 100%

CN1C[C@H](c2cc(F)cc(F)c2)[C@@H](C(=O)Nc2ncc(C(F)(F)F)cc2F)C1=O [Compound 868]
pest or weed control at 125 g/ha ([1]; postemergence, visual injury rating after approximately 10 d, read-out: Blackgrass plant response rating (0 to 100 scale, 0 no effect, 100 complete control)): 0% | pest or weed control at 125 g/ha ([2]; postemergence, visual injury rating after approximately 10 d, read-out: Pigweed plant response rating (0 to 100 scale, 0 no effect, 100 complete control)): 0% | plant injury at 125 g/ha (corn (Zea mays); postemergence, visual injury rating after approximately 10 d, read-out: Corn plant response rating (0 to 100 scale, 0 no effect, 100 complete control)): 0% | pest or weed control at 125 g/ha ([3]; postemergence, visual injury rating after approximately 10 d, read-out: Ragweed plant response rating (0 to 100 scale, 0 no effect, 100 complete control)): 0% | pest or weed control at 125 g/ha ([4]; postemergence, visual injury rating after approximately 10 d, read-out: Ryegrass, Italian plant response rating (0 to 100 scale, 0 no effect, 100 complete control)): 0% | pest or weed control at 250 g/ha [5]: 0% | pest or weed control at 250 g/ha [6]: 0% | pest or weed control at 250 g/ha (rice (Oryra sativa)): 0% | pest or weed control at 250 g/ha [7]: 0% | pest or weed control at 125 g/ha [8, 13]: 0% | pest or weed control at 500 g/ha ([8]; Preemergence, visual injury vs untreated controls after approximately 10 d, read-out: Pigweed plant response rating (0 to 100 scale where 0 is no effect and 100 is complete control)): 0% | pest or weed control at 125 g/ha (Kochia (Kochia scoparia); [14]): 0% | pest or weed control at 500 g/ha (Kochia (Kochia scoparia); Preemergence, visual injury vs untreated controls after approximately 10 d, read-out: Kochia plant response rating (0 to 100 scale where 0 is no effect and 100 is complete control)): 0% | pest or weed control at 125 g/ha ([9]; 125 g ai/ha, preemergence, 0 to 100 scale where 0 is no effect and 100 is complete control, read-out: Ragweed plant response rating): 0% | pest or weed control at 500 g/ha ([9]; Preemergence, visual injury vs untreated controls after approximately 10 d, read-out: Ragweed plant response rating (0 to 100 scale where 0 is no effect and 100 is complete control)): 0% | pest or weed control at 125 g/ha ([10]; 125 g ai/ha, preemergence, 0 to 100 scale where 0 is no effect and 100 is complete control, read-out: Ryegrass, Italian plant response rating): 0% | pest or weed control at 500 g/ha ([10]; Preemergence, visual injury vs untreated controls after approximately 10 d, read-out: Ryegrass, Italian plant response rating (0 to 100 scale where 0 is no effect and 100 is complete control)): 0% | pest or weed control at 125 g/ha [11, 15]: 20% | pest or weed control at 500 g/ha ([11]; Preemergence, visual injury vs untreated controls after approximately 10 d, read-out: Foxtail, Giant plant response rating (0 to 100 scale where 0 is no effect and 100 is complete control)): 60% | pest or weed control at 125 g/ha [12, 16]: 30% | pest or weed control at 500 g/ha ([12]; Preemergence, visual injury vs untreated controls after approximately 10 d, read-out: Barnyardgrass plant response rating (0 to 100 scale where 0 is no effect and 100 is complete control)): 60%

From patent publication US12077503B2, “Substituted cyclic amides and their use as herbicides” (FMC CORPORATION, priority 2015, dated 2024)
